{"source": "paper PMC10660610", "about": "(Scientific Reports, 2023)", "format_in_all_cases": "binding", "key": {"[1]": {"biological_target": "T1, KOR (kappa-opioid receptor) (Cavia porcellus, UniProt P41144)", "T1 construct": "gene OPRK1; native full-length receptor in guinea pig brain membrane homogenate", "T1 sequence (P41144 whole entry)": "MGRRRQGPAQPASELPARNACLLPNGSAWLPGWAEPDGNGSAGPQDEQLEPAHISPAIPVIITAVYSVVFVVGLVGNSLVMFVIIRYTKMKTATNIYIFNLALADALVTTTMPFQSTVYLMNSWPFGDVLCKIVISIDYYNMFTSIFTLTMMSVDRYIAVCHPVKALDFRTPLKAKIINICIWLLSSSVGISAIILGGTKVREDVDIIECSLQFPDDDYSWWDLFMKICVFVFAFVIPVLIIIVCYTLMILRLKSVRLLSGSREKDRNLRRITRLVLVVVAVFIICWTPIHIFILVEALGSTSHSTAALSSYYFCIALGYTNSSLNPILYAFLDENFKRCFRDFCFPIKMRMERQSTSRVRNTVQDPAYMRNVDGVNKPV", "details": "50 mM Tris-HCl pH 7.4, 25 °C, 30 min; read-out: KOR^b / Ki ± S.E.M.", "excerpt": "[3H]HS665 displacement, guinea pig brain membranes on KOR (kappa-opioid receptor)"}, "MOR (mu-opioid receptor)": {"biological_target": "T2, MOR (mu-opioid receptor) (Rattus norvegicus, UniProt P33535)", "T2 construct": "gene Oprm1; native full-length receptor in rat brain membrane homogenate", "T2 sequence (P33535 whole entry)": "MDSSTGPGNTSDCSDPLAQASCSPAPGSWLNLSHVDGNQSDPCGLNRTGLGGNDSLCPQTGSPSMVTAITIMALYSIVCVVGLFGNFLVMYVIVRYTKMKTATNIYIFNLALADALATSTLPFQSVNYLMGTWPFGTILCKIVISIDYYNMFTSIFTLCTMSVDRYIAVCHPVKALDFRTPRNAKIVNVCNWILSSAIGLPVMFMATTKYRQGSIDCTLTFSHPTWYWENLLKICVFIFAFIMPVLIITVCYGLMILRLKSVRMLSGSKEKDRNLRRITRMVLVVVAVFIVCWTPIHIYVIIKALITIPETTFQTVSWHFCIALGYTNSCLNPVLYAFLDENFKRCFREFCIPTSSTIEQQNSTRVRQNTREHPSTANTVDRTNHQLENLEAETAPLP", "details": "50 mM Tris-HCl pH 7.4, 35 °C, 45 min; read-out: MOR^a / Ki ± S.E.M."}, "[2]": {"biological_target": "T3, DOR (delta-opioid receptor) (Rattus norvegicus, UniProt P33533)", "T3 construct": "gene Oprd1; native full-length receptor in rat brain membrane homogenate", "T3 sequence (P33533 whole entry)": "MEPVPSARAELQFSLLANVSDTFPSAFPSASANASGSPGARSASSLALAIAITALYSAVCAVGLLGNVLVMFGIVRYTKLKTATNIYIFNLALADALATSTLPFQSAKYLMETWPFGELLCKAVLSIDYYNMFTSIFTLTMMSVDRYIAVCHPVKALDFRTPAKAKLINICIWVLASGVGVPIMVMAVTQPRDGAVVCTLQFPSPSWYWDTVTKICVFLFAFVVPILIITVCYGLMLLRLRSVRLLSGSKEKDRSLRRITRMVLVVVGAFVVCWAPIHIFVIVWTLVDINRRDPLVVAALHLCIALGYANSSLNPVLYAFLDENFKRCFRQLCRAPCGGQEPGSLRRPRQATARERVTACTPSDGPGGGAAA", "details": "50 mM Tris-HCl pH 7.4, 35 °C, 45 min; read-out: DOR^a / Ki ± S.E.M."}}}
{"molecule": "Oc1ccc2c3c1O[C@H]1[C@@H](O)C=C[C@H]4[C@@H](C2)N(CCN2CCOCC2)CC[C@@]341", "note": "[9a]", "values": [{"measurement": "Ki", "setting": "[1]", "value": "20.3 ± 4.2", "unit": "nM"}, {"measurement": "Ki", "setting": "MOR (mu-opioid receptor)", "value": "389 ± 17", "unit": "nM"}, {"measurement": "Ki", "setting": "[2]", "value": "25.3 ± 1.5", "unit": "nM"}]}
{"molecule": "Oc1ccc2c3c1O[C@H]1[C@@H](O)C=C[C@H]4[C@@H](C2)N(CCN2CCCCC2)CC[C@@]341", "note": "[9b]", "values": [{"measurement": "Ki", "setting": "[1]", "value": "138 ± 42.3", "unit": "nM"}, {"measurement": "Ki", "setting": "MOR (mu-opioid receptor)", "value": "436 ± 18.8", "unit": "nM"}, {"measurement": "Ki", "setting": "[2]", "value": "44.9 ± 7.2", "unit": "nM"}]}
{"molecule": "Oc1ccc2c3c1O[C@H]1[C@@H](O)C=C[C@H]4[C@@H](C2)N(CCN2CCCC2)CC[C@@]341", "note": "[9c]", "values": [{"measurement": "Ki", "setting": "[1]", "value": "6.9 ± 4.6", "unit": "nM"}, {"measurement": "Ki", "setting": "MOR (mu-opioid receptor)", "value": "62.3 ± 2.6", "unit": "nM"}, {"measurement": "Ki", "setting": "[2]", "value": "34.1 ± 7.1", "unit": "nM"}]}
{"molecule": "O=C(CN1CC[C@]23c4c5ccc(O)c4O[C@H]2[C@@H](O)C=C[C@H]3[C@H]1C5)N1CCOCC1", "note": "[10a]", "values": [{"measurement": "Ki", "setting": "[1]", "value": "3.6 ± 1.9", "unit": "nM"}, {"measurement": "Ki", "setting": "MOR (mu-opioid receptor)", "value": "394 ± 186", "unit": "nM"}]}
{"molecule": "O=C(CN1CC[C@]23c4c5ccc(O)c4O[C@H]2[C@@H](O)C=C[C@H]3[C@H]1C5)N1CCCCC1", "note": "[10b]", "values": [{"measurement": "Ki", "setting": "MOR (mu-opioid receptor)", "value": "1500 ± 664", "unit": "nM"}, {"measurement": "Ki", "setting": "[2]", "value": "> 10000", "unit": "nM"}]}
{"molecule": "O=C(CN1CC[C@]23c4c5ccc(O)c4O[C@H]2[C@@H](O)C=C[C@H]3[C@H]1C5)N1CCCC1", "note": "[10c]", "values": [{"measurement": "Ki", "setting": "[1]", "value": "10.7 ± 7.7", "unit": "nM"}, {"measurement": "Ki", "setting": "MOR (mu-opioid receptor)", "value": "521 ± 218", "unit": "nM"}, {"measurement": "Ki", "setting": "[2]", "value": "839 ± 99.9", "unit": "nM"}]}
{"molecule": "O=C1CC[C@@]2(O)[C@H]3Cc4ccc(O)c5c4[C@@]2(CCN3CC(=O)N2CCOCC2)[C@H]1O5", "note": "[12a]", "values": [{"measurement": "Ki", "setting": "MOR (mu-opioid receptor)", "value": "684 ± 32.7", "unit": "nM"}, {"measurement": "Ki", "setting": "[2]", "value": "125 ± 39.6", "unit": "nM"}]}
{"molecule": "O=C1CC[C@@]2(O)[C@H]3Cc4ccc(O)c5c4[C@@]2(CCN3CC(=O)N2CCCCC2)[C@H]1O5", "note": "[12b]", "values": [{"measurement": "Ki", "setting": "MOR (mu-opioid receptor)", "value": "1490 ± 612", "unit": "nM"}, {"measurement": "Ki", "setting": "[2]", "value": "1140 ± 532", "unit": "nM"}]}
